Patent US20120149654A1 (priority 2009, published 2012)

System: ScGT1 cells
Conditions: for cells remaining viable after treatment: mouse

Substance	cell viability / cytotoxicity	cells remaining viable after treatment [%]
fulvic acids [FA]	remain viable	94
humic acids [HA]	remain viable	96
